Measurements: patent US7531695B2, “Therapeutic agents for the treatment of cancer, metabolic diseases and skin disorders” (Auspex Pharmaceutical, Inc, priority 2004, dated 2009)
Counter-ions that a name gives are not always drawn.

Columns and labels:
[1] = system: human head and neck squamous cell carcinoma cells (SCC 103); assay: SCC103 Tumor Cell Proliferation Assay; assay type: cell-based; settings: SCC 103 cells; compared to Bexarotene; FIG. 1
Experimental: SCC 103 cells (15,000 per well in 90% EMEM medium plus 10% Fetal Bovine Serum [FBS]) were pre-incubated in a black clear bottom 96-well plate in an atmosphere of 5% CO2 at 37° C. for 24 hours. Stock solutions of compounds in DMSO were diluted using a buffer and dilutions were added to each well. […] The final assay pH was 7.4. The cells were incubated in EMEM medium for an additional 72 hours. Alamar Blue (10% of culture volume) was added and the plate was incubated for an additional 12 hours. Fluorescence intensity was measured using a Gemini plate reader with excitation at 530 nm and emission at 590 nm. A decrease of 50 percent or more (≧50%) in fluorescence intensity relative to vehicle treated controls is an indication of significant anti-cancer activity.

[2] = system: A375 cells; assay: A375 Tumor Cell Proliferation Assay; assay type: cell-based; settings: Homo sapiens, A-375, read-out: LC50 (50% Lethal Concentration)
Experimental: A375 cells (5,000 per well in 90% RPMI-1640 plus 10% Fetal Bovine Serum [FBS]) were pre-incubated in a black clear bottom 96-well plate in an atmosphere of 5% CO2 at 37° C. for 24 hours. Stock solutions of compounds in DMSO were diluted using a buffer and dilutions were added to each well. […] The final assay pH was 7.4. The cells were incubated in RPMI-1640 with each compound for an additional 72 to 168 hours. Alamar Blue was added and the plate was incubated for an additional 12 hours. Fluorescence intensity was measured using a Gemini plate reader with excitation at 530 nm and emission at 590 nm. A decrease of 50 percent or more (≧50%) in fluorescence intensity relative to vehicle treated controls is an indication of significant anti-cancer activity.

Cc1cc2c(cc1C(=O)c1ccc(C3=C(O)CCCC3=O)cc1)C(C)(C)CCC2(C)C [Example 8, 3-Hydroxy-2-[4(3,5,5,8,8-pentamethyl-5,6,7,8-tetrahydronaphthalene-2-carbonyl)-phenyl]-cyclohex-2-enone potassium salt]
growth inhibitory effect [1]: enhanced activity

COc1cccc2c1C(=O)c1c(O)c3c(c(O)c1C2=O)C[C@@](O)(C(=O)CO)C[C@@H]3O[C@H]1C[C@H](N)[C@H](O)[C@H](C)O1 [Doxorubicin]
CC50 [2]: 8 µM

C=C(c1ccc(C2=C(O)CCCC2=O)cc1)c1cc2c(cc1C)C(C)(C)CCC2(C)C [Example 5, 5-3-Hydroxy-2-{4-[1-(3,5,5,8,8-pentamethyl-5,6,7,8-tetrahydro-naphthalen-2-yl)-vinyl]-phenyl}-cyclohex-2-enone]
growth inhibitory effect [1]: enhanced activity
